As usually defined, the inhibition is the drop in the measured response relative to a control, in per cent.

These results are taken from paper PMC7489219 (Molecular Brain, 2020).

Each structure is given as a SMILES string. Counter-ions that a name gives are not always drawn.

For this assay, the system named is T1, primary mouse cortical neurons.
T1 construct: primary cortical neurons, DIV 10
Briefly: cells. More on the design: Protection from NMDA-induced (30 uM, 10 min) neuronal death; Hoechst nuclear morphology by automated microscopy. Conditions: Cortical neurone, 20 h, read-out: % inhibition, inhibition of NMDA-induced cell death (protection score), 30 min pre-treatment. The method, then:
On DIV 10, compounds were applied to the cells reaching an end concentration of 10 μM. Cells were incubated for 30 min at 37 °C, 5% CO2 before adding NMDA (30 μM). Cells were incubated for another 10 min in the incubator, then washed twice with defined minimal medium containing 10 μM of the respective compound and incubated for an additional 20 h before readout. Untreated (no NMDA) and NMDA-only stimulated wells were treated with 0.1% DMSO. […] After 15 min of incubation at room temperature, cells were washed twice with phosphate buffered saline. […] Dead neurons were identified by amorphous or shrunken nuclei using CellProfiler and CellProfiler Analyst software. For all cell death analyses the experimental unit (N) is defined as an independent experiment using an independent neuronal preparation. For each independent experiment, data from 3 replicate wells (i.e., from 36 images), representing an average of 3000 cells was analyzed per condition. The survival rate S was calculated by dividing the number of living cells by the total number of cells. The survival rate was then used to calculate the protection score according to Scompound−Svehicle/Suntreated−Svehicle×100=%protection , where ‘compound’ refers to compound + NMDA treatment, ‘vehicle’ refers to vehicle + NMDA treatment, and ‘untreated’ refers to DMSO control. […] As a proof of principle, we next used our assay to screen two commercially available drug libraries. In these screens, primary cortical cells were incubated with test compounds at 10 μM concentration for 30 min before addition of 30 μM NMDA. After 10 min NMDA treatment, cells were washed with fresh medium and kept in the presence of test compounds for 20 h until assessment of cell viability. […] This library covers structurally diverse drugs from several fields such as oncology, cardiology, immunology, and neurology/psychiatry.

On to `CC(C)(O)[C@H]1CC[C@@](C)([C@H]2[C@@H](O)C[C@@]3(C)[C@@H]4C[C@H](O[C@@H]5O[C@H](CO)[C@@H](O)[C@H](O)[C@H]5O)[C@H]5C(C)(C)[C@@H](O[C@@H]6OC[C@@H](O)[C@H](O)[C@H]6O)CC[C@@]56C[C@@]46CC[C@]23C)O1` [Astragaloside A], for which the inhibition at 10 µM is 0.89%.

With `COc1cc([C@H]2Oc3ccc([C@H]4Oc5cc(O)cc(O)c5C(=O)[C@@H]4O)cc3O[C@@H]2CO)ccc1O` [Silymarin (Silybin B)], the inhibition at 10 µM was 10%.

`NC[C@@H]1O[C@H](O[C@H]2[C@@H](O)[C@H](O[C@@H]3[C@@H](O)[C@H](N)C[C@H](N)[C@H]3O[C@H]3O[C@H](CN)[C@@H](O)[C@H](O)[C@H]3N)O[C@@H]2CO)[C@H](N)[C@@H](O)[C@@H]1O` [Neomycin sulfate]: the inhibition at 10 µM was -1.47%.

In the case of `C=CCc1ccc(O)c(-c2cc(CC=C)ccc2O)c1` [Magnolol], the inhibition at 10 µM is -3.4%.

Consider `CO[C@H]1/C=C/O[C@@]2(C)Oc3c(C)c(O)c4c(O)c(c5c(c4c3C2=O)=NC2(CCN(CC(C)C)CC2)N=5)NC(=O)/C(C)=C\C=C\[C@H](C)[C@H](O)[C@@H](C)[C@@H](O)[C@@H](C)[C@H](OC(C)=O)[C@@H]1C` [Rifabutin (Mycobutin)], for which the inhibition at 10 µM was -2.35%.

In the case of `CCCC(CCC)C(=O)O` [Divalproex sodium], the inhibition at 10 µM is 3.49%.

Regarding `C=C1C(=O)[C@]23[C@H](O)[C@H]1CC[C@H]2[C@@]12CO[C@]3(O)[C@@H](O)[C@@H]1C(C)(C)CC[C@@H]2O` [Oridonin (Isodonol)], the inhibition at 10 µM was -2.85%.

On to `CN(C)CC/C=C1/c2ccccc2Sc2ccc(Cl)cc21` [Chlorprothixene], for which the inhibition at 10 µM was -2.97%.

As to `CC1Cc2ccccc2N1NC(=O)c1ccc(Cl)c(S(N)(=O)=O)c1` (stereo not drawn) [Indapamide (Lozol)], the inhibition at 10 µM was determined as 0.426%.

For `C[C@H](CCC(=O)O)[C@H]1CC[C@H]2[C@@H]3C[C@H](O)[C@@H]4C[C@H](O)CC[C@]4(C)[C@H]3CC[C@]12C` [Hyodeoxycholic acid (HDCA)], the inhibition at 10 µM is -3.21%.

For `NCCS(=O)(=O)O` [Taurine], the inhibition at 10 µM came to 8.63%.

In the case of `O=C(O)COCCN1CCN(C(c2ccccc2)c2ccc(Cl)cc2)CC1` (stereo not drawn) [Cetirizine Dihydrochloride], the inhibition at 10 µM was -10.5%.

On to `CO[C@H]1/C=C/O[C@@]2(C)Oc3c(C)c(O)c4c(O)c(c5c(nc6cc(C)ccn65)c4c3C2=O)NC(=O)/C(C)=C\C=C\[C@H](C)[C@H](O)[C@@H](C)[C@@H](O)[C@@H](C)[C@H](OC(C)=O)[C@@H]1C` [Rifaximin (Xifaxan)], for which the inhibition at 10 µM stood at 1.93%.

Regarding `Nc1nc2[nH]cnc2c(=S)[nH]1` [Thioguanine], the inhibition at 10 µM was 13%.

Turning to `Cn1c(=O)c2c(ncn2CC(O)CO)n(C)c1=O` (stereo not drawn) [Dyphylline (Dilor)], the inhibition at 10 µM is -0.361%.

In the case of `C[C@H]1C[C@H]2[C@@H]3CCC4=CC(=O)C=C[C@]4(C)[C@H]3C(=O)C[C@]2(C)[C@@]1(O)C(=O)CO` [Betapar (Meprednisone)], the inhibition at 10 µM was 11.6%.

In the case of `Nc1ccc(S(=O)(=O)Nc2ncccn2)cc1` [Sulfadiazine], the inhibition at 10 µM was 17.4%.

`O=C(O)C(O)Cc1ccc(O)c(O)c1` (stereo not drawn) [Sodium Danshensu]: the inhibition at 10 µM amounted to 6.44%.

`C#Cc1cccc(Nc2ncnc3cc(OCCOC)c(OCCO)cc23)c1` [OSI-420 (Desmethyl Erlotinib)]: the inhibition at 10 µM was -0.167%.

In the case of `NNc1nncc2ccccc12` [Hydralazine hydrochloride], the inhibition at 10 µM was -0.625%.

On to `O=c1c(O)c(-c2ccc(O)cc2)oc2cc(O)cc(O)c12` [Kaempferol], for which the inhibition at 10 µM was -2.58%.

As to `CC(C)NCC(O)c1ccc(NS(C)(=O)=O)cc1` (stereo not drawn) [Sotalol (Betapace)], the inhibition at 10 µM was -6.66%.

Regarding `Cc1onc(-c2ccccc2Cl)c1C(=O)N[C@@H]1C(=O)N2[C@@H]1SC(C)(C)[C@@H]2C(=O)O` [Cloxacillin sodium (Cloxacap)], the inhibition at 10 µM was determined as 0.144%.

For `C[C@H](Cn1cnc2c(N)ncnc21)OCP(=O)(O)O` [Tenofovir (Viread)], the inhibition at 10 µM is 8.23%.
